From article PMC9120017, “Inhibition mechanism of the chloride channel TMEM16A by the pore blocker 1PBC” (Nature Communications, 2022)
Read-outs that look alike come from different tables or passages of the source.

Target: T1, mouse TMEM16A mutant Q637A (Mus musculus, UniProt Q8BHY3, Q637A)
T1 construct: expressed in transfected cells; host or cells: HEK293T
T1 sequence (Q8BHY3 1-960 Q637A): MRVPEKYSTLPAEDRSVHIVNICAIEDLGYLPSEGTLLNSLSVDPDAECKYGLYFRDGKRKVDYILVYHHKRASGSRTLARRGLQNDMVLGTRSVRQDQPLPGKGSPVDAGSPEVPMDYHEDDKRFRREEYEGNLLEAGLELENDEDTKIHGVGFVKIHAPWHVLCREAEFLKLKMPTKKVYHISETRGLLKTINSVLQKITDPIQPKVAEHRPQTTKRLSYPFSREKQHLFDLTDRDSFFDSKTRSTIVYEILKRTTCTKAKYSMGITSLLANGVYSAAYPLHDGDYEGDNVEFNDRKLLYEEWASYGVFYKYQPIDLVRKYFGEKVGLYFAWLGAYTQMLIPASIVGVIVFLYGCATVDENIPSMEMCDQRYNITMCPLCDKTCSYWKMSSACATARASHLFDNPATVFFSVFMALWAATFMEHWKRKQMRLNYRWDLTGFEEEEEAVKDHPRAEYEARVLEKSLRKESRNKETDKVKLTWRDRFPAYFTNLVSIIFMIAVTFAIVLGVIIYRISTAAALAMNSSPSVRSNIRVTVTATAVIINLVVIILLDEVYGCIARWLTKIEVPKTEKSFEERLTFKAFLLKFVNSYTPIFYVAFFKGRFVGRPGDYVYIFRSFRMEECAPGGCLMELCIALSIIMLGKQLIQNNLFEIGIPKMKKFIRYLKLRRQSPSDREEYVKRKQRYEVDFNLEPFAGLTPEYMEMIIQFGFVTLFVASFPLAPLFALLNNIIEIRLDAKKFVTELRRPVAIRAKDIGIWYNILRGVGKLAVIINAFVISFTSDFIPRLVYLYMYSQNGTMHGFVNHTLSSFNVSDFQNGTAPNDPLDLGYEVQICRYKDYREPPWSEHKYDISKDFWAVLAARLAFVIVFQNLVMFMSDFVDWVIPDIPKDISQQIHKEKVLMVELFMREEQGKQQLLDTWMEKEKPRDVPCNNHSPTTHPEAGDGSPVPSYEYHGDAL
Test: Inside-out patch recording of 1PBC block, mutant Q637A
Assay type: cell-based
Conditions: for remaining activity at 1 µM: 1PBC conc 1; for remaining activity at 1 µM / remaining activity at 3 µM / remaining activity at 10 µM / remaining activity at 30 µM: read-out: relative current in 1PBC (avr); for remaining activity at 3 µM: 1PBC conc 3; for remaining activity at 10 µM: 1PBC conc 10; for remaining activity at 30 µM: 1PBC conc 30
Protocol: HEK293T cells (ATCC CRL-1573) were maintained in Dulbecco’s modified Eagle’s medium (DMEM; Sigma-Aldrich) supplemented with 10 U ml^−1 penicillin, 0.1 mg ml^−1 streptomycin (Sigma-Aldrich), 2 mM L-glutamine (Sigma-Aldrich), and 10% FBS (Sigma-Aldrich) in a humidified atmosphere containing 5% CO2 at 37 °C. HEK293S GnTI^− cells (ATCC CRL-3022) were maintained in HyClone HyCell TransFx-H medium (GE Healthcare) supplemented with 10 U ml^−1 penicillin, 0.1 mg ml^−1 streptomycin, 4 mM L-glutamine, 0.15% poloxamer 188 (Sigma-Aldrich), and 1% FBS in an atmosphere containing 5% CO2 at 185 rpm at 37 °C. The ac splice variant of mouse TMEM16A (UniProt ID: Q8BHY3), mouse TMEM16B (UniProt ID: Q8CFW1), or mouse TMEM16F (UniProt ID: Q6P9J9) bearing a 3C cleavage site, a Venus YFP, a Myc tag, and a Streptavidin-binding peptide (SBP) downstream of the open reading frame in a modified pcDNA3.1 vector (Invitrogen) were used as described previously[21],[31]. Mutations were introduced using a modified QuikChange method[58] and were verified by sequencing.
HEK293T cells were transfected with 3–4 μg DNA per 6 cm Petri dish using the calcium phosphate co-precipitation method and were used within 24–96 h after transfection. Recordings were performed on inside-out patches excised from HEK293T cells expressing the construct of interest. Patch pipettes were pulled from borosilicate glass capillaries (O.D. 1.5 mm, I.D. 0.86 mm, Sutter Instrument) and were fire-polished with a microforge (Narishige) before use. Pipette resistance was typically 3–8 MΩ when filled with the recording solutions detailed below. Seal resistance was typically 4 GΩ or higher. Voltage-clamp recordings were made using Axopatch 200B, Digidata 1550, and Clampex 10.7 (Molecular Devices). Analog signals were filtered with the in-built 4-pole Bessel filter at 10 kHz and were digitized at 20 kHz. Solution exchange was achieved using a gravity-fed system through a theta glass pipette mounted on an ultra-fast piezo-driven stepper (Siskiyou). […] All recordings were performed at 20 °C.
A symmetrical ionic condition was used throughout. Stock solution with Ca^2+-EGTA contained 150 mM NaCl, 5.99 mM Ca(OH)2, 5 mM EGTA, and 10 mM HEPES at pH 7.40. Stock solution with EGTA contained 150 mM NaCl, 5 mM EGTA, and 10 mM HEPES at pH 7.40. Free Ca^2+ concentrations were adjusted by mixing the stock solutions at the required ratios calculated using the WEBMAXC program (http://web.stanford.edu/~cpatton/webmaxcS.htm). Patch pipettes were filled with the stock solution with Ca^2+-EGTA, which has a free Ca^2+ concentration of 1 mM. 1PBC (ChemBridge) stock was reconstituted in anhydrous DMSO (Sigma-Aldrich) at 100 mM and stored at −20 °C. Working solutions with 1PBC were prepared by serial dilution. Unless otherwise stated, experiments were performed at a saturating Ca^2+ concentration as shown in Supplementary Table 1 and the primary data were corrected for current rundown as described previously[21],[25].
Concentration-response relations, obtained from the ratio of the I-V plots before and after the application of the blocker, were fitted to the Hill equation,1 I/Imax=1/1+IC50/[blocker]^h where I/Imax is the normalized current responses, IC50 defines the concentration at which inhibition is at its half-maximum, and h is the Hill coefficient.

An IC50 (0 mV, 2 µM Ca2+) of 1820 nM, a remaining activity at 1 µM (0 mV) of 65.8% and a remaining activity at 3 µM (0 mV) of 36.3% were found for `N#Cc1c(C(F)(F)F)cc(O)n2c1nc1ccccc12` [1PBC] in this work. For the same molecule, the remaining activity at 10 µM (0 mV) was 15.5%, the remaining activity at 30 µM (0 mV) was 6.35% and the IC50 (20 mV, 2 µM Ca2+) was 1400 nM. It also gave a remaining activity at 1 µM (20 mV) of 59.7%, a remaining activity at 3 µM (20 mV) of 30.3% and a remaining activity at 10 µM (20 mV) of 12.3%. It also gave a remaining activity at 30 µM (20 mV) of 4.62%, an IC50 (40 mV, 2 µM Ca2+) of 1150 nM and a remaining activity at 1 µM (40 mV) of 54.8%. It also gave a remaining activity at 3 µM (40 mV) of 26.2%, a remaining activity at 10 µM (40 mV) of 10.3% and a remaining activity at 30 µM (40 mV) of 3.87%. For the same molecule, the IC50 (60 mV, 2 µM Ca2+) was 956 nM, the remaining activity at 1 µM (60 mV) was 49.7% and the remaining activity at 3 µM (60 mV) was 22.8%. For the same molecule, the remaining activity at 10 µM (60 mV) was 9%, the remaining activity at 30 µM (60 mV) was 3.77% and the “log-fold IC50 (change of mutant vs WT)” value (80 mV) was -0.3333. It also gave an IC50 (80 mV, 2 µM Ca2+) of 880 nM, a remaining activity at 1 µM (80 mV) of 47.5% and a remaining activity at 3 µM (80 mV) of 21%. For the same molecule, the remaining activity at 10 µM (80 mV) was 9.17%, the remaining activity at 30 µM (80 mV) was 3.99% and the IC50 (100 mV, 2 µM Ca2+) was 898 nM. For the same molecule, the remaining activity at 1 µM (100 mV) was 48.7%, the remaining activity at 3 µM (100 mV) was 20.5% and the remaining activity at 10 µM (100 mV) was 9.32%. It also gave a remaining activity at 30 µM (100 mV) of 4.29%, an IC50 (120 mV, 2 µM Ca2+) of 985 nM and a remaining activity at 1 µM (120 mV) of 50.9%. The remaining activity at 3 µM (120 mV) was 22%, the remaining activity at 10 µM (120 mV) was 10.5% and the remaining activity at 30 µM (120 mV) was 5.23%. It also gave an IC50 (140 mV, 2 µM Ca2+) of 1170 nM, a remaining activity at 1 µM (140 mV) of 55.6% and a remaining activity at 3 µM (140 mV) of 24.7%. For the same molecule, the remaining activity at 10 µM (140 mV) was 12.4%, the remaining activity at 30 µM (140 mV) was 6.82% and the IC50 (-20 mV, 2 µM Ca2+) was 2340 nM. It also gave a remaining activity at 1 µM (-20 mV) of 71.8%, a remaining activity at 3 µM (-20 mV) of 42.4% and a remaining activity at 10 µM (-20 mV) of 18.6%. It also gave a remaining activity at 30 µM (-20 mV) of 8.09%, an IC50 (-40 mV, 2 µM Ca2+) of 3080 nM and a remaining activity at 1 µM (-40 mV) of 76.6%. It also gave a remaining activity at 3 µM (-40 mV) of 49.5%, a remaining activity at 10 µM (-40 mV) of 23.3% and a remaining activity at 30 µM (-40 mV) of 10.7%. The IC50 (-60 mV, 2 µM Ca2+) was 4040 nM, the remaining activity at 1 µM (-60 mV) was 81.3% and the remaining activity at 3 µM (-60 mV) was 56.4%. It also gave a remaining activity at 10 µM (-60 mV) of 28.3%, a remaining activity at 30 µM (-60 mV) of 13.4% and an IC50 (-80 mV, 2 µM Ca2+) of 5190 nM. The remaining activity at 1 µM (-80 mV) was 84.8%, the remaining activity at 3 µM (-80 mV) was 62.7% and the remaining activity at 10 µM (-80 mV) was 33.3%. The remaining activity at 30 µM (-80 mV) was 16.6%, the IC50 (-100 mV, 2 µM Ca2+) was 6660 nM and the remaining activity at 1 µM (-100 mV) was 87.3%. The remaining activity at 3 µM (-100 mV) was 68.5%, the remaining activity at 10 µM (-100 mV) was 38.7% and the remaining activity at 30 µM (-100 mV) was 20.5%. For the same molecule, the IC50 (-120 mV, 2 µM Ca2+) was 8290 nM, the remaining activity at 1 µM (-120 mV) was 88.8% and the remaining activity at 3 µM (-120 mV) was 72.5%. For the same molecule, the remaining activity at 10 µM (-120 mV) was 44.2%, the remaining activity at 30 µM (-120 mV) was 24.7% and the IC50 (-140 mV, 2 µM Ca2+) was 10200 nM. It also gave a remaining activity at 1 µM (-140 mV) of 89.3%, a remaining activity at 3 µM (-140 mV) of 76.3% and a remaining activity at 10 µM (-140 mV) of 49.3%. The remaining activity at 30 µM (-140 mV) was 28.8%, the IC50 (Q637A, V 0 mV) was 1820 nM and the IC50 (Q637A, V 20 mV) was 1400 nM. It also gave an IC50 (Q637A, V 40 mV) of 1150 nM, an IC50 (Q637A, V 60 mV) of 956 nM and an IC50 (Q637A, V 80 mV) of 880 nM. For the same molecule, the IC50 (Q637A, V 100 mV) was 898 nM, the IC50 (Q637A, V 120 mV) was 985 nM and the IC50 (Q637A, V 140 mV) was 1170 nM. The IC50 (Q637A, V -20 mV) was 2340 nM, the IC50 (Q637A, V -40 mV) was 3080 nM and the IC50 (Q637A, V -60 mV) was 4040 nM. For the same molecule, the IC50 (Q637A, V -80 mV) was 5190 nM, the IC50 (Q637A, V -100 mV) was 6660 nM and the IC50 (Q637A, V -120 mV) was 8290 nM. It also gave an IC50 (Q637A, V -140 mV) of 10200 nM.
